Measurements published in PubChem BioAssay AID248 (DTP/NCI, 2004).
Several values for one entry are separate records, joined by “and”; a condition that tells them apart may be missing. Equal entries are not always repeated. Inconclusive results and toxic doses are left out. No stated cut-off is given here; in the data, active means T/C of 150% or more; inactive means T/C below 125%.

Tested on: L1210 leukemia ip in BDF1 mice, survival T/C
Assay: NCI In Vivo Anticancer Drug Screen. Data for tumor model L1210 Leukemia (intraperitoneal) in B6D2F1 (BDF1) mice
Conditions: endpoint: mean survival time, higher = longer survival
Procedure, shortened: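 In this screen, tumor-bearing mice given compound are compared to those given vehicle, and their survival values are reported as a treated-to-control quotient.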

[1] = dose: 100.0 mg/kg/injection, schedule: Q04DX003 (ip), vehicle: saline with Tween-80
[2] = dose: 200.0 mg/kg/injection, schedule: Q04DX003 (ip), vehicle: saline with Tween-80
[3] = dose: 400.0 mg/kg/injection, schedule: Q04DX003 (ip), vehicle: saline with Tween-80
[4] = dose: 100.0 mg/kg/injection, schedule: Q01DX009 (ip), vehicle: Klucel (hydroxypropylcellulose) (HPC)
[5] = dose: 200.0 mg/kg/injection, schedule: Q01DX009 (ip), vehicle: Klucel (hydroxypropylcellulose) (HPC)
[6] = dose: 100.0 mg/kg/injection, schedule: Q04DX003 (ip), vehicle: Klucel (hydroxypropylcellulose) (HPC)
[7] = dose: 200.0 mg/kg/injection, schedule: Q04DX003 (ip), vehicle: Klucel (hydroxypropylcellulose) (HPC)
[8] = dose: 400.0 mg/kg/injection, schedule: Q01DX009 (ip), vehicle: Klucel (hydroxypropylcellulose) (HPC)
[9] = dose: 400.0 mg/kg/injection, schedule: Q04DX003 (ip), vehicle: Klucel (hydroxypropylcellulose) (HPC)
[10] = dose: 75.0 mg/kg/injection, schedule: Q01DX001 (ip), vehicle: saline
[11] = dose: 150.0 mg/kg/injection, schedule: Q01DX001 (ip), vehicle: saline
[12] = dose: 100.0 mg/kg/injection, schedule: Q01DX001 (ip), vehicle: Klucel (hydroxypropylcellulose) (HPC)
[13] = dose: 200.0 mg/kg/injection, schedule: Q01DX001 (ip), vehicle: Klucel (hydroxypropylcellulose) (HPC)

Measured: T/C

Cc1ccccc1-c1nc2c(N)nc(N)nc2nc1N
inactive: dose: 25.25 mg/kg/injection, schedule: Q01DX Z (ip), vehicle: carboxymethylcellulose (CMC) 104 % of control | dose: 50.0 mg/kg/injection, schedule: Q01DX001 (ip), vehicle: carboxymethylcellulose (CMC) 101 % of control | dose: 50.5 mg/kg/injection, schedule: Q01DX Z (ip), vehicle: carboxymethylcellulose (CMC) 106 % of control | dose: 79.0 mg/kg/injection, schedule: Q04DX002 (ip), vehicle: Klucel (hydroxypropylcellulose) (HPC) 111 % of control | dose: 100.0 mg/kg/injection, schedule: Q01DX001 (ip), vehicle: carboxymethylcellulose (CMC) 96 % of control | dose: 118.0 mg/kg/injection, schedule: Q04DX002 (ip), vehicle: Klucel (hydroxypropylcellulose) (HPC) 97 % of control | dose: 180.0 mg/kg/injection, schedule: Q04DX002 (ip), vehicle: Klucel (hydroxypropylcellulose) (HPC) 100 % of control | dose: 200.0 mg/kg/injection, schedule: Q01DX001 (ip), vehicle: carboxymethylcellulose (CMC) 104 % of control | dose: 270.0 mg/kg/injection, schedule: Q04DX002 (ip), vehicle: Klucel (hydroxypropylcellulose) (HPC) 111 % of control | dose: 400.0 mg/kg/injection, schedule: Q01DX001 (ip), vehicle: carboxymethylcellulose (CMC) 98 % of control | dose: 500.0 mg/kg/injection, schedule: Q01DX Z (ip), vehicle: methylcellulose (MC) 120 % of control | dose: 750.0 mg/kg/injection, schedule: Q01DX Z (ip), vehicle: methylcellulose (MC) 114 % of control | dose: 1000.0 mg/kg/injection, schedule: Q01DX Z (ip), vehicle: methylcellulose (MC) 101 % of control

NC(=Nc1ccc(N)cc1)C(N)=Nc1ccc(N)cc1
inactive: dose: 50.0 mg/kg/injection, schedule: Q01DX009 (ip), vehicle: saline with Tween-80 97 % of control | dose: 100.0 mg/kg/injection, schedule: Q01DX009 (ip), vehicle: saline with Tween-80 95 % of control and 98 % of control | [1] 96 % of control | dose: 200.0 mg/kg/injection, schedule: Q01DX009 (ip), vehicle: saline with Tween-80 106 % of control | [2] 98 % of control | dose: 400.0 mg/kg/injection, schedule: Q01DX009 (ip), vehicle: saline with Tween-80 96 % of control and 112 % of control | [3] 91 % of control

Oc1cccc(Nc2ccccc2)c1
inactive: dose: 100.0 mg/kg/injection, schedule: Q04DX002 (ip), vehicle: Klucel (hydroxypropylcellulose) (HPC) 106 % of control | dose: 200.0 mg/kg/injection, schedule: Q04DX002 (ip), vehicle: Klucel (hydroxypropylcellulose) (HPC) 95 % of control | dose: 400.0 mg/kg/injection, schedule: Q04DX002 (ip), vehicle: Klucel (hydroxypropylcellulose) (HPC) 95 % of control

CCCCCS(=O)(=O)N1CCCCC1
inactive: dose: 100.0 mg/kg/injection, schedule: Q04DX002 (ip), vehicle: other 103 % of control | dose: 200.0 mg/kg/injection, schedule: Q04DX002 (ip), vehicle: other 92 % of control | dose: 400.0 mg/kg/injection, schedule: Q04DX002 (ip), vehicle: other 107 % of control

Oc1ccc(CCNCc2cc3c(cc2Br)OCO3)cc1
inactive: dose: 50.0 mg/kg/injection, schedule: Q01DX009 (ip), vehicle: Klucel (hydroxypropylcellulose) (HPC) 101 % of control | [4] 96 % of control | [5] 108 % of control

NC(CSCc1ccccc1)C(=O)OCc1ccccc1 (centres undefined)
inactive: [4] 98 % of control | [6] 100 % of control | [5] 92 % of control | [7] 89 % of control | [8] 95 % of control | [9] 96 % of control

Clc1ccccc1C(CI)c1ccccc1Cl
inactive: dose: 5.0 mg/kg/injection, schedule: Q01DX001 (ip), vehicle: other 98 % of control | dose: 10.0 mg/kg/injection, schedule: Q01DX001 (ip), vehicle: other 98 % of control | dose: 20.0 mg/kg/injection, schedule: Q01DX001 (ip), vehicle: other 98 % of control | dose: 40.0 mg/kg/injection, schedule: Q01DX001 (ip), vehicle: other 100 % of control | dose: 80.0 mg/kg/injection, schedule: Q01DX001 (ip), vehicle: other 100 % of control

CCCCP(=O)(CCCC)C1CCCC1
inactive: dose: 100.0 mg/kg/injection, schedule: Q01DX001 (ip), vehicle: saline with Tween-80 103 % of control | dose: 200.0 mg/kg/injection, schedule: Q01DX001 (ip), vehicle: saline with Tween-80 100 % of control | dose: 400.0 mg/kg/injection, schedule: Q01DX001 (ip), vehicle: saline with Tween-80 90 % of control

COc1ccc2[nH]ccc2c1
inactive: dose: 100.0 mg/kg/injection, schedule: Q01DX009 (ip), vehicle: other 90 % of control | dose: 100.0 mg/kg/injection, schedule: Q04DX003 (ip), vehicle: other 92 % of control | dose: 200.0 mg/kg/injection, schedule: Q01DX009 (ip), vehicle: other 104 % of control | dose: 200.0 mg/kg/injection, schedule: Q04DX003 (ip), vehicle: other 105 % of control | dose: 400.0 mg/kg/injection, schedule: Q01DX009 (ip), vehicle: other 88 % of control | dose: 400.0 mg/kg/injection, schedule: Q04DX003 (ip), vehicle: other 94 % of control

CN(Cc1ccccc1)C(=O)/C=C/c1ccccc1
inactive: [4] 93 % of control | [6] 94 % of control | [5] 96 % of control | [7] 96 % of control | [9] 89 % of control

CC(=O)Cc1ccc(C(=O)C(C)Cc2ccc(C(C)=O)cc2)cc1 (centres undefined)
inactive: [1] 90 % of control | [2] 110 % of control | [3] 92 % of control

O=C(OCCOCCOCCOC(=O)c1ccccc1)c1ccccc1
inactive: [4] 96 % of control | [6] 112 % of control | [5] 96 % of control | [7] 102 % of control | [8] 102 % of control | [9] 99 % of control

O=C(O)CS(=O)(=O)CC(=O)O
inactive: [1] 98 % of control | [2] 93 % of control

N#Cc1ccc[n+](Cc2ccc3c(c2)OCO3)c1
inactive: [10] 106 % of control | [11] 106 % of control

C[N+]1([O-])C2CCC1CC(OC(=O)C(O)c1ccccc1)C2 (centres undefined)
inactive: [10] 110 % of control | [11] 100 % of control | dose: 300.0 mg/kg/injection, schedule: Q01DX001 (ip), vehicle: saline 95 % of control

O=C(NCCc1ccccc1)c1ccccc1
inactive: [1] 112 % of control | [2] 102 % of control | [3] 100 % of control

CC(=O)Nc1ccc(N=Nc2ccccc2)cc1
inactive: [12] 100 % of control | [13] 100 % of control | dose: 400.0 mg/kg/injection, schedule: Q01DX001 (ip), vehicle: Klucel (hydroxypropylcellulose) (HPC) 96 % of control

Cc1ccc(NC(=O)Nc2cccc3ccccc23)cc1
inactive: dose: 12.0 mg/kg/injection, schedule: Q01DX009 (ip), vehicle: gum acacia 108 % of control | dose: 12.5 mg/kg/injection, schedule: Q04DX003 (ip), vehicle: gum acacia 91 % of control | dose: 25.0 mg/kg/injection, schedule: Q01DX009 (ip), vehicle: gum acacia 103 % of control | dose: 25.0 mg/kg/injection, schedule: Q04DX003 (ip), vehicle: gum acacia 93 % of control | dose: 50.0 mg/kg/injection, schedule: Q01DX009 (ip), vehicle: gum acacia 94 % of control | dose: 50.0 mg/kg/injection, schedule: Q04DX003 (ip), vehicle: gum acacia 98 % of control

CC(=O)OC1CCC2(C)C(CCC3C2CCC2(C)C(C(C)O)CCCC32)C1 (centres undefined)
inactive: [12] 88 % of control | [13] 98 % of control
